# Source: PMC4097363, “Trace amines inhibit insect odorant receptor function through antagonism of the co-receptor subunit” (F1000Research, 2014)
# Entries after “also recorded” stand apart in the source; their conditions may differ. Read-outs that look alike come from different tables or passages of the source.
# Legend:
# Cqui\Orco = Cqui\Orco (Culex quinquefasciatus, UniProt Q309I4); assay: Antagonism of OLC12 activation of Orco in Xenopus oocytes; format: cell-based; settings: for inhibition at 100 µM: Cqui\Orco activated by 30µM OLC12 (~EC5), 100µM of each amine, mean ± SEM, n = 3-10, read-out: inhibition of the OLC12 response; for IC50: read-out: IC 50 for inhibition of Cqui\Orco activation
# Sequence of Cqui\Orco (Q309I4 entry or part of it): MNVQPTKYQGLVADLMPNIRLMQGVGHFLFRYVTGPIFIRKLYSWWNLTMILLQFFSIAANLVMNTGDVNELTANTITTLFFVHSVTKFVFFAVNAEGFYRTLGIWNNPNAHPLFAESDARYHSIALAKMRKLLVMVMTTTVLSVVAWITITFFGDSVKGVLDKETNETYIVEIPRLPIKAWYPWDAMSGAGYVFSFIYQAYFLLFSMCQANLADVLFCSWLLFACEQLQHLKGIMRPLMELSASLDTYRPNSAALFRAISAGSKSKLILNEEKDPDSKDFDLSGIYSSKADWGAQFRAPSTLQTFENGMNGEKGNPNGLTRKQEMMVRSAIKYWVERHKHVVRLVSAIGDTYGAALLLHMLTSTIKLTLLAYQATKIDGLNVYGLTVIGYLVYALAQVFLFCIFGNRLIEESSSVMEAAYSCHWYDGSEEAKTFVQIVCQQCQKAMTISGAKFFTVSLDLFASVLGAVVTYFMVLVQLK
# Description: (§1) Follicle cells were removed by treatment with collagenase B (Boehringer Mannheim) for 2 hours at room temperature. Capped cRNA encoding each OR subunit was generated using mMessage mMachine kits (Ambion). For heteromeric ORs, 25 ng of cRNA encoding each OR subunit was injected into Stage V-VI Xenopus oocytes. For expression of Orco homomers, 50 ng of cRNA was injected. Oocytes were incubated at 18°C in Barth's saline (in mM: 88 NaCl, 1 KCl, 2.4 NaHCO 3, 0.3 CaNO 3, 0.41 CaCl 2, 0.82 MgSO 4, 15 HEPES, pH 7.6, and 150µg/ml ceftazidime) for 2–5 days prior to electrophysiological recording.
# (§2) Odorant and Orco ligand induced currents were recorded under two-electrode voltage clamp, using an automated parallel electrophysiology system (OpusExpress 6000A, Molecular Devices). Oocytes were perfused with ND96 (in mM: 96 NaCl, 2 KCl, 1 CaCl 2, 1 MgCl 2, 5 HEPES, pH 7.5). Orco ligands were prepared as 50 or 100 mM stock solutions in DMSO and then diluted into ND96 on the day of the experiment. Odorants were prepared as 100 mM stock solutions in DMSO and then diluted into ND96. Unless otherwise noted, applications were for 60 sec at a flow rate of 1.0 ml/min, with extensive washing in ND96 at 4.6 ml/min between applications. Micropipettes were filled with 3 M KCl and had resistances of 0.2–2.0 MΩ. The holding potential was -70 mV. Current responses, filtered (4-pole, Bessel, low pass) at 20 Hz (-3 db) and sampled at 100 Hz, were captured and stored using OpusXpress 1.1 software (Molecular Devices).
# To screen for agonist activity, oocytes were exposed to 30 sec applications of candidate compounds with 5 min washes between applications ( Figure 2A). For the concentration-response protocol ( Table 1), applications were for 20 sec at a flow rate of 1.65 ml/min. To measure antagonist activity at Orco ( Figure 2B, 2C, Figure 3, Figure 4A and Figure 5A), oocytes were exposed to two 60 sec applications of the synthetic Orco agonist OLC12 (2-((4-Ethyl-5-(4-pyridinyl)-4H-1,2,4-triazol-3-yl)sulfanyl)-N-(4-isopropylphenyl)acetamide) with 4 min washes between applications. Oocytes were then exposed to a 90 sec application of antagonist candidate, immediately followed by a 60 sec co-application of antagonist candidate and OLC12. The current response in the presence of antagonist candidate was compared to the mean of the preceding two responses to OLC12 alone and is presented as a percentage.
# Initial analysis of electrophysiological data was done using Clampfit 9.1 software (Molecular Devices). Curve fitting and statistical analyses were done using Prism 5 (Graphpad). Concentration-inhibition data were fit to the equation: I = I max/(1+ (X/IC 50) ^n) where I represents the current response at a given concentration of inhibitor, X; I max is the maximal response in the absence of inhibitor; IC 50 is the concentration of inhibitor present that still allows a half maximal response from odorant; n is the apparent Hill coefficient. Concentration-response data were fit to the equation: I = I max/(1+(EC 50/X) ^n) where I represents the current response at a given concentration of odorant, X; I max is the maximal response; EC 50 is the concentration of agonist yielding a half maximal response; n is the apparent Hill coefficient. Statistical significance (p<0.05) was assessed using a two-tailed unpaired t test, an F test, or a one-way analysis of variance followed by the Dunnett's post-test, as appropriate.
# Agam\Orco+Agam\Or65 = Agam\Orco+Agam\Or65 (Anopheles gambiae, UniProt Q7QCC7); assay: Inhibition of odorant activation of heteromeric OR in Xenopus oocytes; format: cell-based; settings: for IC50: IC 50 for inhibition of responses to eugenol; for inhibition of odorant activation of the OR: activated by 100nM eugenol, 10µM tryptamine or 100µM tyramine
# Sequence of Agam\Orco+Agam\Or65 (Q7QCC7 whole entry): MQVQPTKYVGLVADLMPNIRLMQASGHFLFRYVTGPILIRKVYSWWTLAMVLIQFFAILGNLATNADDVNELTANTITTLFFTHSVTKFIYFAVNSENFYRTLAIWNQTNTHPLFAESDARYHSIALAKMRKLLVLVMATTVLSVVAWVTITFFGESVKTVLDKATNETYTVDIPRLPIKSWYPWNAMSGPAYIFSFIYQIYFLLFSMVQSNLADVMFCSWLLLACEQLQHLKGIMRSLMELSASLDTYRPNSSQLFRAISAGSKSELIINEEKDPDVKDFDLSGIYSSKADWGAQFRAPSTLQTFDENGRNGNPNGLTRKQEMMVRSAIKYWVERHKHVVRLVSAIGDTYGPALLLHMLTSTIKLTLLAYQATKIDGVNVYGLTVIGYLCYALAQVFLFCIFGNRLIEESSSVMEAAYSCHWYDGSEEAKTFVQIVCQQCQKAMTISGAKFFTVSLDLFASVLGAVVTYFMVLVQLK
# Description: as §1, §2
# To measure inhibition of odorant activation of heteromeric ORs ( Figures 4B, 4C, Figure 5B and Figure 6), oocytes were exposed to a 30 sec application of odorant followed by a 10 min wash. Oocytes were then exposed to a 90 sec application of tryptamine or tyramine, immediately followed by a 30 sec co-application of tryptamine or tyramine and odorant. The current response in the presence of antagonist candidate was compared to the preceding response to odorant alone and expressed as a percentage. […] For this reason, we then re-normalized antagonism data to the value obtained when the assay was run in the absence of antagonist candidate (sham). In the “sham” assay, oocytes were exposed to a 30 sec application of odorant followed by a 10 min wash and then exposed to a 90 sec application of ND96 (no antagonist candidate), immediately followed by a 30 sec application of odorant. The second odorant response was compared to the first response and expressed as a percentage. In Figure 4B, 4C, Figure 5B and Figure 6, the sham value for 100nM eugenol was 57 ± 3% (mean ± SEM, n = 3). In Figure 5B, the sham value for 10nM eugenol was 93 ± 4% (n = 4). In Figure 4B and C, the sham value for 1µM Z11-14:OAc was 82 ± 6% (n = 6) and the sham value for 150µM 2-phenylethanol was 92 ± 2% (n = 3). In Figure 6, the sham value for 3µM L-fenchone was 83 ± 1% (n = 3), the sham value for 40µM acetophenone was 92 ± 1% (n = 3), the sham value for 70µM geranyl acetate was 97 ± 1% (n = 3), the sham value for 10µM 6-methyl-5-hepten-2-one was 94 ± 2% (n = 3) and the sham value for 3µM 2-nonanone was 81 ± 1% (n = 3).
# Initial analysis of electrophysiological data was done using Clampfit 9.1 software (Molecular Devices). Curve fitting and statistical analyses were done using Prism 5 (Graphpad). […]
# Mcar\Orco+Mcar\Or5 = assay: as above; format: cell-based, Megacyllene caryae; settings: activated by 150µM 2-phenylethanol; 10µM tryptamine or 100µM tyramine
# Description: as §1
# as §2, with “Current responses, filtered (4-pole, Bessel, low pass) at 20 Hz (-3 db) and sampled at 100 Hz, were captured and stored using OpusXpress 1.1 software (Molecular Devices).” left out
Structure (SMILES),inhibition at 100 µM (Cqui\Orco) [%],"inhibition of OLC12 activation of Orco (Cqui\Orco; Cqui\Orco, 30µM OLC12, 10µM tryptamine)",mechanism of antagonism of Cqui\Orco (Cqui\Orco; OLC12 increased from 30µM to 100µM),IC50 (Cqui\Orco; activated by 30µM OLC12) [µM],IC50 (Cqui\Orco; activated by 100µM OLC12) [µM],"mechanism of inhibition of odorant activation (Agam\Orco+Agam\Or65; Agam\Orco+Agam\Or65, 10nM vs 100nM eugenol)","IC50 (Agam\Orco+Agam\Or65; Agam\Orco+Agam\Or65, 10nM eugenol) [µM]","IC50 (Agam\Orco+Agam\Or65; Agam\Orco+Agam\Or65, 100nM eugenol) [µM]",inhibition of odorant activation of the OR (Agam\Orco+Agam\Or65),inhibition of odorant activation of the OR (Mcar\Orco+Mcar\Or5),less potent than tryptamine (IC50 ratio) (Cqui\Orco; Cqui\Orco activated by 30µM OLC12) [fold]
NCCc1c[nH]c2ccccc12 [tryptamine],92 ± 2,inhibited OLC12 activation of Orco from each of these three insect species,competitive antagonist,4.7 ± 0.7,143 ± 18,non-competitively inhibits odorant activation,3.1 ± 0.4,3.2 ± 0.3,substantial inhibition of each receptor; also recorded: able to inhibit odorant activation of the receptor,substantial inhibition of each receptor,–
NCCc1ccc(O)cc1 [tyramine],40 ± 5,–,–,157 ± 22,–,–,–,–,"able to reduce odorant activation of these ORs, but was less effective than tryptamine; also recorded: able to inhibit odorant activation of each of these receptors, but was less effective than tryptamine","able to reduce odorant activation of these ORs, but was less effective than tryptamine",33
